From patent US6034069A, “3-'N-modified 6-O-substituted erythromycin ketolide derivatives having antibacterial activity” (priority 1998, dated 2000)

tested on: Escherichia coli DC-2; assay: in vitro antibacterial activity, agar dilution MIC; assay type: cell-based; conditions: Organism code SS; BHI agar, 35-37° C., 20 to 24 hours
Procedure: (§1) Representative compounds of the present invention were assayed in vitro for antibacterial activity as follows: Twelve petri dishes containing successive aqueous dilutions of the test compound mixed with 10 mL of sterilized Brain Heart Infusion (BHI) agar (Difco 0418-01-5) were prepared. Each plate was inoculated with 1:100 (or 1:10 for slow-growing strains, such as Micrococcus and Streptococcus) dilutions of up to 32 different microorganisms, using a Steers replicator block. […] In addition, a control plate, using BHI agar containing no test compound, was prepared and incubated at the beginning and end of each test.
(§2) An additional plate containing a compound having known susceptibility patterns for the organisms being tested and belonging to the same antibiotic class as the test compound was also prepared and incubated as a further control, as well as to provide test-to-test comparability.
(§3) After incubation, each plate was visually inspected. The minimum inhibitory concentration (MIC) was defined as the lowest concentration of drug yielding no growth, a slight haze, or sparsely isolated colonies on the inoculum spot as compared to the growth control.

Row | SMILES | minimum inhibitory concentration (MIC)
1 | CC[C@H]1OC(=O)[C@H](C)C(=O)[C@H](C)[C@@H](O[C@@H]2O[C@H](C)C[C@H](N(C)CCF)[C@H]2O)[C@](C)(OCC=Cc2cnc3ccccc3c2)C[C@@H](C)C(=O)[C@H](C)[C@H]2NC(=O)O[C@@]21C [Example 7] | > 100

tested on: Streptococcus Pheumoniae 5979; assay: in vitro antibacterial activity, agar dilution MIC; assay type: cell-based; conditions: Organism code ZZ; BHI agar, 35-37° C., 20 to 24 hours
Procedure: as §1, §2, §3

Row | SMILES | minimum inhibitory concentration (MIC)
2 | CC[C@H]1OC(=O)[C@H](C)C(=O)[C@H](C)[C@@H](O[C@@H]2O[C@H](C)C[C@H](N(C)CC#N)[C@H]2O)[C@](C)(OCC=Cc2cnc3ccccc3c2)C[C@@H](C)C(=O)[C@H](C)[C@H]2NC(=O)O[C@@]21C [Example 9] | 128
3 | CC[C@H]1OC(=O)[C@H](C)C(=O)[C@H](C)[C@@H](O[C@@H]2O[C@H](C)C[C@H](N(C)Cc3cccnc3)[C@H]2O)[C@](C)(OCC=Cc2cnc3ccccc3c2)C[C@@H](C)C(=O)[C@H](C)[C@H]2NC(=O)O[C@@]21C [Example 14] | > 128
4 | CC[C@H]1OC(=O)[C@H](C)C(=O)[C@H](C)[C@@H](O[C@@H]2O[C@H](C)C[C@H](N(C)CC3CC3)[C@H]2O)[C@](C)(OCC=Cc2cnc3ccccc3c2)C[C@@H](C)C(=O)[C@H](C)[C@H]2NC(=O)O[C@@]21C [Example 15] | > 128
5 | CCCN(C)[C@H]1C[C@@H](C)O[C@@H](O[C@@H]2[C@@H](C)C(=O)[C@@H](C)C(=O)O[C@H](CC)[C@@]3(C)OC(=O)N[C@@H]3[C@@H](C)C(=O)[C@H](C)C[C@@]2(C)OCC=Cc2cnc3ccccc3c2)[C@@H]1O [Example 16] | 128
6 | C=C(CN(C)[C@H]1C[C@@H](C)O[C@@H](O[C@@H]2[C@@H](C)C(=O)[C@@H](C)C(=O)O[C@H](CC)[C@@]3(C)OC(=O)N[C@@H]3[C@@H](C)C(=O)[C@H](C)C[C@@]2(C)OCC=Cc2cnc3ccccc3c2)[C@@H]1O)C(=O)OC [Example 18] | 128
7 | C=C(C)CN(C)[C@H]1C[C@@H](C)O[C@@H](O[C@@H]2[C@@H](C)C(=O)[C@@H](C)C(=O)O[C@H](CC)[C@@]3(C)OC(=O)N[C@@H]3[C@@H](C)C(=O)[C@H](C)C[C@@]2(C)OCC=Cc2cnc3ccccc3c2)[C@@H]1O [Example 19] | 128
